Reference: patent US20070009532A1 (priority 2005, published 2007)

Key:
P450 isoenzyme 3A4 = P450 isoenzyme 3A4 (Homo sapiens, UniProt P08684); conditions: cited from earlier work
[1] = pharmacokinetic interaction with co-administered oncolytics in preclinical models; assay type: in vivo; conditions: several oncolytics tested in preclinical models
P-gp = target: T1, P-gp (Homo sapiens, UniProt P08183); experiment: substrate for P-gp efflux / duration of reversal activity in resistant cells; assay type: cell-based
T1 construct: relatively long duration of reversal activity in resistant cells even after the modulator has been withdrawn; endogenous in cells
T1 sequence (P08183 whole entry): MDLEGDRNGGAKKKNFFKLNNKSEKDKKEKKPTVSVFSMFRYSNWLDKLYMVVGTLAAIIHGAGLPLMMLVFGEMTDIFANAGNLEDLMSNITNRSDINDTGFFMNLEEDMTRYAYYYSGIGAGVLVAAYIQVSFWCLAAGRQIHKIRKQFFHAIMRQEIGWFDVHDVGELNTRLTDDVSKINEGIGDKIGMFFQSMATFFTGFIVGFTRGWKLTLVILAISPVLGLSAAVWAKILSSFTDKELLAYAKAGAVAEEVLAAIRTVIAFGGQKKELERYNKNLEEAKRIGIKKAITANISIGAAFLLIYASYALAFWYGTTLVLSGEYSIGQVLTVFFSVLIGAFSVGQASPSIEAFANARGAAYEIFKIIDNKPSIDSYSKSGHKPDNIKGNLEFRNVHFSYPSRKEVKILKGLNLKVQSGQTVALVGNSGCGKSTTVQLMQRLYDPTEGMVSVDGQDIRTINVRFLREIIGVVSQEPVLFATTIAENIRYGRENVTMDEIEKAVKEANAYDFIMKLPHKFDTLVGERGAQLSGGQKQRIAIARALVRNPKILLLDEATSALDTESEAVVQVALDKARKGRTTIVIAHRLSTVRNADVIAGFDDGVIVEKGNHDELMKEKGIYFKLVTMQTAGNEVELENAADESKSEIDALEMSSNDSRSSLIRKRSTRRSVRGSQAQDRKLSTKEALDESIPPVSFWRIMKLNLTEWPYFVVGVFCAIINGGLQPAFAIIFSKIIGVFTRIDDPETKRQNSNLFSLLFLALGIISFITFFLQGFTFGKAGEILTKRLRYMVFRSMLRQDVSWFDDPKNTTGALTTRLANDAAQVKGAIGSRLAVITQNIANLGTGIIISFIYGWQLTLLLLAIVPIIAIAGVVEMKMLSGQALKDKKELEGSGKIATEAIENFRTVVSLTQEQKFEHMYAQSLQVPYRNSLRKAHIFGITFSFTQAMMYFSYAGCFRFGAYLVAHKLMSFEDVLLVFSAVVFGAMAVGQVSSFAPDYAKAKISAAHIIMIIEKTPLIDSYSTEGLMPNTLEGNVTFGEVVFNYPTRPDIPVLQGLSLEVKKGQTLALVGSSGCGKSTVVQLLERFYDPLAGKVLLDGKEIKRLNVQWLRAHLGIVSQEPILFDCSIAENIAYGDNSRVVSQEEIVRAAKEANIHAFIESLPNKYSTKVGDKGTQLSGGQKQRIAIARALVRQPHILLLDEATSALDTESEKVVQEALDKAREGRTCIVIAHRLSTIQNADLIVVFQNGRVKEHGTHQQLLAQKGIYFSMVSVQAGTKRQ

P450 isoenzyme 3A4, sequence (P08684 whole entry): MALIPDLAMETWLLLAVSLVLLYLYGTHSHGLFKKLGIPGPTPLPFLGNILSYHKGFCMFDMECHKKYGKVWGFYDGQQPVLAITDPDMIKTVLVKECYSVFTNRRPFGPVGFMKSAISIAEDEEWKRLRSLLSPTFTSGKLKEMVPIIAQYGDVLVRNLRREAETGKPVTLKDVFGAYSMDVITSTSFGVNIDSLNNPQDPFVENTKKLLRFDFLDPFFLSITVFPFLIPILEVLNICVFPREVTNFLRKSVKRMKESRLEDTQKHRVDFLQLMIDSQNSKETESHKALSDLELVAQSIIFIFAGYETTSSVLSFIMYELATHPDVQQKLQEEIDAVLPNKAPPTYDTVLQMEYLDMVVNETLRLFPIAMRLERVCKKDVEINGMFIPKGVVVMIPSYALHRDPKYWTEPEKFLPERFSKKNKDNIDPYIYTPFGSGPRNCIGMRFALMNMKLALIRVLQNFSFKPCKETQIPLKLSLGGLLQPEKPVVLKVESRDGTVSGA

SMILES | substrate for P450 isoenzyme 3A4 (P450 isoenzyme 3A4) | pharmacokinetic (PK) interactions with oncolytics [1] | substrate for P-gp efflux (P-gp)
COc1cc(C(=O)C(=O)N2CCCC[C@H]2C(=O)OC(CCCc2cccnc2)CCCc2cccnc2)cc(OC)c1OC [biricodar] | substrates for the P450 isoenzyme 3A4 | – | –
C/C=C/C[C@@H](C)C(=O)[C@H]1C(=O)N[C@@H](C(C)C)C(=O)N(C)CC(=O)N(C)[C@@H](CC(C)C)C(=O)N[C@@H](C(C)C)C(=O)N(C)[C@@H](CC(C)C)C(=O)N[C@@H](C)C(=O)N[C@H](C)C(=O)N(C)[C@@H](CC(C)C)C(=O)N(C)[C@@H](CC(C)C)C(=O)N(C)[C@@H](C(C)C)C(=O)N1C [valspodar] | substrates for the P450 isoenzyme 3A4 | – | –
O[C@@H](COc1cccc2ncccc12)CN1CCN([C@@H]2c3ccccc3[C@@H]3[C@H](c4ccccc42)C3(F)F)CC1 [zosuquidar, (2R)-anti-5-3-[4-(10,11-difluoromethanodibenzosuber-5-y1)piperazin-1-y1]-2-hydroxypropoxy)quinoline] | – | minimal pharmacokinetic (PK) interactions | does not appear to be a substrate for P-gp efflux
